Results from paper PMC6480602, “Design, Synthesis, and Evaluation of Monoamine Oxidase A Inhibitors–Indocyanine Dyes Conjugates as Targeted Antitumor Agents” (Molecules, 2019).
Entries after “also recorded” stand apart in the source; their conditions may differ. Counter-ions that a name gives are not always drawn. Like-named read-outs stand apart in the source and are kept apart here.

Tests used:
PC-3 cells = experiment: MTT cytotoxicity assay against PC-3 cells; format: cell-based, human; settings: for IC50: 96 h exposure, read-out: IC50 (μM), anti-proliferative activity against PC-3 cells
Protocol: The antitumor activities of G1–G13 were evaluated by MTT (3-(4,5-dimethylthiazol-2-yl)-2,5-diphenyltetrazolium bromide) assay using a human PC-3 cell line.
The in vitro cytotoxicity activity of G1–G13 were measured by the colorimetric MTT assay. Briefly, PC-3 cells were incubated in 96-well plates at a density of 3 × 10^3 cells/well for 24 h. Then, the cells were exposed to various concentrations of tested compounds, INH and DOX, respectively for 96 h. After incubation, 10 μL of MTT (5 mg/mL) solution was added and the plates were incubated for 4 h at 37 °C. Next, the medium was replaced with 200 μL of DMSO to dissolve the formed formazan crystals. The absorbance was measured at 570 nm on a microplate reader (Synergy-HT, BioTek Instruments, Winooski, VT, USA).

[1] = biological target: T1, Monoamine oxidase A (MAOA) (Homo sapiens, UniProt P21397); experiment: MAOA inhibition activity assay in LNCaP cells (Cell MAOA Assay Kit); format: cell-based
T1 construct: the prostate cancer cell line LNCaP expressed a relatively high level of MAOA; endogenous in cells; host or cells: LNCaP cells (Cell Bank of the Chinese Academy of Sciences, Shanghai)
T1 sequence (P21397 1-527): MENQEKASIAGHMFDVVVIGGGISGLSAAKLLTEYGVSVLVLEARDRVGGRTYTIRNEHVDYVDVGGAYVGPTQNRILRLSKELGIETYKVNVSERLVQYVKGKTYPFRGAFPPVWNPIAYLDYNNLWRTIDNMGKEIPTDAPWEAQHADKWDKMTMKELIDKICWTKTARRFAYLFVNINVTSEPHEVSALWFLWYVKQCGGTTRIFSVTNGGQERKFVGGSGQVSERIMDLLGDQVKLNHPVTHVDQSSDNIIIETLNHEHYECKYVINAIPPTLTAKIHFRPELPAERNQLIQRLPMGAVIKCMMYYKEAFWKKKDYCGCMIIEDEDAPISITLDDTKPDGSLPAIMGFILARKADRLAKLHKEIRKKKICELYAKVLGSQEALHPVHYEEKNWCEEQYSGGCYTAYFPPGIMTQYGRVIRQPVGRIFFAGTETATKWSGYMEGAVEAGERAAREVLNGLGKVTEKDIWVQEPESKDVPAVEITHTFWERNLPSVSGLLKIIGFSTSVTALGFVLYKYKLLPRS
Protocol: Because the prostate cancer cell line LNCaP expressed a relatively high level of MAOA [17, 40], we tested the inhibitory effect of compounds G10, G11, and G12 on MAOA using LNCaP cells (Table 2).
In a 10-mm dish, 6 × 10^5 LNCaP cells were plated in medium supplemented with 10% FBS. […] The reaction products were extracted and MAOA activities were measured as described in the introduction for the Cell MAOA Assay Kit (Shanghai Chengong Biotechnology, CHN, Lot No: 1-201838-10). The MAOA activity was assessed based on the substrate p-tyramine level after treatment with MAOB inhibitor pargyline.

[2] = LNCaP cells, 48 h treatment, substrate p-tyramine, with MAOB inhibitor pargyline, read-out: IC50 (nM), MAOA inhibitory activity in LNCaP cells

Row | Compound | IC50 (PC-3 cells; Homo sapiens) [µM] | also measured
1 | 2-(7-(5-methoxyl-1-(5-carboxypentyl)-1,3-dihydro-5-ethyl-3-methyl-2H-indol-2-ylidene)-1,3,5-heptatrien-1-yl)-5-methoxyl-1-(6-(2-isonicotinoylhydrazinyl)-6-oxohexyl)-5-ethyl-3-methyl-3H-indol-1-ium bromide [Compound G6] |  | IC50 (PC-3 cells): 37.1 µM
2 | COc1ccc2c(c1)C(C)(C)C(=CC=C1CCCC(C=CC3=[N+](CCCCCC(=O)NNC(=O)c4ccncc4)c4ccc(OC)cc4C3(C)C)=C1Cl)N2CCCCCC(=O)O [Compound G1, 2-(2-(3-(2-(5-Methoxyl-1-(5-carboxypentyl)-3,3-dimethyl-indol-2-ylidene)ethylidene)-2-chloro-1-cyclohexen-1-yl)vinyl)-5-methoxyl-1-(6-(2-isonicotinoylhydrazinyl)-6-oxohexyl)-3,3-dimethyl-3H-indol-1-ium bromide] | 18.4 | 
3 | CC1(C)C(=CC=C2CCCC(C=CC3=[N+](CCCCCC(=O)NNC(=O)c4ccncc4)c4ccc(Br)cc4C3(C)C)=C2Cl)N(CCCCCC(=O)O)c2ccc(Br)cc21 [Compound G2, 2-(2-(3-(2-(5-Bromo-1-(5-carboxypentyl)-3,3-dimethyl-indol-2-ylidene)ethylidene)-2-chloro-1-cyclohexen-1-yl)vinyl)-5-bromo-1-(6-(2-isonicotinoylhydrazinyl)-6-oxohexyl)-3,3-dimethyl-3H-indol-1-ium bromide] | 75 | 
4 | CCC1(C)C(/C=C/C2=C(Cl)C(=C/C=C3/N(CCCCCC(=O)O)c4ccc(OC)cc4C3(C)CC)/CCC2)=[N+](CCCCCC(=O)NNC(=O)c2ccncc2)c2ccc(OC)cc21 (centres unmarked) [Compound G3, 2-(2-(3-(2-(5-Methoxyl-1-(5-carboxypentyl)-5-ethyl-3-methyl-indol-2-ylidene)ethylidene)-2-chloro-1-cyclohexen-1-yl)vinyl)-5-methoxyl-1-(6-(2-isonicotinoylhydrazinyl)-6-oxohexyl)-5-ethyl-3-methyl-3H-indol-1-ium bromide] | 13.3 | 
5 | Cc1ccc2c(c1)C(C)(C)C(=CC=CC=CC=CC1=[N+](CCCCCC(=O)NNC(=O)c3ccncc3)c3ccc(C)cc3C1(C)C)N2CCCCCC(=O)O [Compound G4, 2-(7-(1-(5-carboxypentyl)-1,3-dihydro-3,3,5-trimethyl-2H-indol-2-ylidene)-1,3,5-heptatrien-1-yl)-1-(6-(2-isonicotinoylhydrazinyl)-6-oxohexyl)-3,3,5-trimethyl-3H-indol-1-ium bromide] | 46.7 | 
6 | COc1ccc2c(c1)C(C)(C)C(=CC=CC=CC=CC1=[N+](CCCCCC(=O)NNC(=O)c3ccncc3)c3ccc(OC)cc3C1(C)C)N2CCCCCC(=O)O [Compound G5, 2-(7-(5-methoxyl-1-(5-carboxypentyl)-1,3-dihydro-3,3-dimethyl-2H-indol-2-ylidene)-1,3,5-heptatrien-1-yl)-5-methoxyl-1-(6-(2-isonicotinoylhydrazinyl)-6-oxohexyl)-3,3-dimethyl-3H-indol-1-ium bromide] | 5.06 | 
7 | COc1ccc2c(c1)C(C)(C)\C(=C/C=C/C=C/C=C/C1=[N+](CCCCCC(=O)NNC(=O)c3ccncc3)c3ccc(C)cc3C1(C)C)N2CCCCS(=O)(=O)[O-] [Compound G7, 3H-Indolium,2-(7-(5-methoxy-1-(4-sulfonatobutyl)-3,3-dimethyl-2H-indolin-2-ylidene)-1,3,5-heptatrien-1-yl)-1-(6-(2-isonicotinoylhydrazinyl)-6-oxohexyl)-1,3-dihydro-3,3,5-trimethyl-, inner salt] | 28.6 | 
8 | COc1ccc2c(c1)C(C)(C)C(/C=C/C=C/C=C/C=C1/N(CCCCS(=O)(=O)[O-])c3ccc(OC)cc3C1(C)C)=[N+]2CCCCCC(=O)NNC(=O)c1ccncc1 [Compound G8, 3H-Indolium,2-(7-(5-methoxy-1-(4-sulfonatobutyl)-3,3-dimethyl-2H-indolin-2-ylidene)-1,3,5-heptatrien-1-yl)-5-methoxy-1-(6-(2-isonicotinoylhydrazinyl)-6-oxohexyl)-1,3-dihydro-3,3-dimethyl-, inner salt] | 102 | 
9 | COc1ccc2c(c1)C(C)(C)\C(=C/C=C/C=C/C=C/C1=[N+](CCCCCC(=O)NNC(=O)c3ccncc3)c3ccccc3C1(C)C)N2CCCCS(=O)(=O)[O-] [Compound G9, 3H-Indolium,2-(7-(5-methoxy-1-(4-sulfonatobutyl)-3,3-dimethyl-2H-indolin-2-ylidene)-1,3,5-heptatrien-1-yl)-1-(6-(2-isonicotinoylhydrazinyl)-6-oxohexyl)-1,3-dihydro-3,3-dimethyl-, inner salt] | 90.5 | 
10 | CCCCN1/C(=C/C=C/C=C/C=C/C2=[N+](CCCC(=O)NNC(=O)c3ccncc3)c3ccc(C)cc3C2(C)C)C(C)(C)c2cc(OC)ccc21 [Compound G10, 2-(7-(5-Methoxy-1-butyl-3,3,5-trimethyl-2H-indolin-2-ylidene)-1,3,5-heptatrien-1-yl)-1-(6-(2-isonicotinoylhydrazinyl)-4-oxobutyl)-1,3-dihydro-3,3-dimethyl-3H-indolium bromide] | 0.85 | MAOA inhibitory activity (in words) ([1]; LNCaP cells): moderate MAOA inhibitory activities; IC50 [1, 2]: 221 nM
11 | CCCCN1/C(=C/C=C/C=C/C=C/C2=[N+](CCCCCC(=O)NNC(=O)c3ccncc3)c3ccc(C)cc3C2(C)C)C(C)(C)c2cc(OC)ccc21 [Compound G11] | 0.4 | MAOA inhibitory activity (in words) ([1]; LNCaP cells): moderate MAOA inhibitory activities; IC50 [1, 2]: 469 nM
12 | CCCCN1/C(=C/C=C/C=C/C=C/C2=[N+](CCCCCC(=O)NNC(=O)c3ccncc3)c3ccc(Br)cc3C2(C)C)C(C)(C)c2cc(OC)ccc21 [Compound G12] | 1.55 | MAOA inhibitory activity (in words) ([1]; LNCaP cells): moderate MAOA inhibitory activities; IC50 [1, 2]: 661 nM
13 | CC1(C)C(/C=C/C=C/C=C/C=C2/N(CCCCCC(=O)NNC(=O)c3ccncc3)c3ccc4ccccc4c3C2(C)C)=[N+](CCCCS(=O)(=O)[O-])c2ccc3ccccc3c21 [Compound G13, 1H-Benz[e]indolium,2-(7-(3,3-dimethyl-1-(4-sulfonatobutyl)benz(e)indolin-2-ylidene)hepta-1,3,5-trien-1-yl)-1-(6-(2-isonicotinoylhydrazinyl)-6-oxohexyl)-1,3-dihydro-3,3-dimethyl-, inner salt] | 10.5 | 
14 | COc1cccc2c1C(=O)c1c(O)c3c(c(O)c1C2=O)C[C@@](O)(C(=O)CO)C[C@@H]3O[C@H]1C[C@H](N)[C@H](O)[C@H](C)O1 [DOX, doxorubicin, reference compound] | 0.21 | 
15 | NNC(=O)c1ccncc1 [INH, isoniazid, reference compound] | > 200 | IC50 [1]: > 1000 nM; cytotoxicity / antitumor activity against PC-3 cells (in words) (PC-3 cells): negligible cytotoxicity; also recorded: negligible in vitro antitumor activity
